Values of other authors, collected in EP3251687A1, “BIOACTIVE PEPTIDES FOR BLOOD GLUCOSE CONTROL” (Centrum Innowacji Edoradca Sp. z o.o. Spolka Komandytowa, priority 2016, dated 2017).

System: carboxypeptidases A, B

For enterostatin, the “resistance to digestion by carboxypeptidases A, B” value is given as “resistant to digestion by carboxypeptidases A, B”.
